Literature values, collected in PMC9516332 (Frontiers in Oncology, 2022).
Read-outs that look alike come from different tables or passages of the source.

Key:
[1] = molecular target: panel of 255 wild-type kinases (Homo sapiens, UniProt P04626); conditions: cited from earlier work
[2] = molecular target: T1, panel of 255 wild-type kinases (Homo sapiens, UniProt P51817); conditions: kinase PRKX, 1 µmol/L single concentration, cited from earlier work
T1 sequence (P51817 1-358): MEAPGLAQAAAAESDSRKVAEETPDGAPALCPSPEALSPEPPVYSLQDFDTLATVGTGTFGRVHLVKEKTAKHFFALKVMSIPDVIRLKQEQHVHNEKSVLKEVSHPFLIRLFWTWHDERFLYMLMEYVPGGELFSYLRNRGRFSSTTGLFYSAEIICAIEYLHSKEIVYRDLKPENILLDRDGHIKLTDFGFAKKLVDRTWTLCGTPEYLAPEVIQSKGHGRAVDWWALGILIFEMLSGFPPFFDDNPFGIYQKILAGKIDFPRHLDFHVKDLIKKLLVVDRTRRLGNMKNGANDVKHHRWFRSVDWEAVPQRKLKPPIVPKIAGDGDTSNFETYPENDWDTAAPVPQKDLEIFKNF

[3] = molecular target: panel of 255 wild-type kinases (Homo sapiens, UniProt P28482); conditions: kinase Erk2, 1 µmol/L single concentration, cited from earlier work
[4] = molecular target: panel of 255 wild-type kinases (Homo sapiens, UniProt Q05397); conditions: kinase FAK, 1 µmol/L single concentration, cited from earlier work
[5] = molecular target: T2, panel of 255 wild-type kinases (Homo sapiens, UniProt O14920); conditions: kinase IKKβ, 1 µmol/L single concentration, cited from earlier work
T2 sequence (O14920 1-756): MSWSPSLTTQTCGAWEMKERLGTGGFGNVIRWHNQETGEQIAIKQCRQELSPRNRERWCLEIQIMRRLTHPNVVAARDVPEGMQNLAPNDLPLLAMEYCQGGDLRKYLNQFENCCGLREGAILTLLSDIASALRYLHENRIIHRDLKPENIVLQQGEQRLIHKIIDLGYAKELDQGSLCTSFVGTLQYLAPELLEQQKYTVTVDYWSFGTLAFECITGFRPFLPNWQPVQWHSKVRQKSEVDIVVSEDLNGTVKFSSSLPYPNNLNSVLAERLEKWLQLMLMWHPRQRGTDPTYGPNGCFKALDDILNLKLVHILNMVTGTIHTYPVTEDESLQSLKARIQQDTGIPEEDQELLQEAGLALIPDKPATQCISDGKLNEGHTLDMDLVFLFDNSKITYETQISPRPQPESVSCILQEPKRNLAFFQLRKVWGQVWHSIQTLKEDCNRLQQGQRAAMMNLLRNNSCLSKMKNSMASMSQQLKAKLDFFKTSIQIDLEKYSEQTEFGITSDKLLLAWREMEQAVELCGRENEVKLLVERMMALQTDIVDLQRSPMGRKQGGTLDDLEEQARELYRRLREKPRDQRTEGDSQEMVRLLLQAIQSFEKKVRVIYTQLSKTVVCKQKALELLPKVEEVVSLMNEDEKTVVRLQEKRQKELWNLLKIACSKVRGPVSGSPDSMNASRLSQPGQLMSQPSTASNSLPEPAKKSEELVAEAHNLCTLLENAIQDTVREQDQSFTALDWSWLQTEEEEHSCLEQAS

[6] = molecular target: panel of 255 wild-type kinases (Homo sapiens, UniProt Q13882); conditions: cited from earlier work
[7] = molecular target: T3, panel of 255 wild-type kinases (Homo sapiens, UniProt O60285); conditions: NuaK1, 1 µmol/L single concentration, cited from earlier work
T3 sequence (O60285 1-661): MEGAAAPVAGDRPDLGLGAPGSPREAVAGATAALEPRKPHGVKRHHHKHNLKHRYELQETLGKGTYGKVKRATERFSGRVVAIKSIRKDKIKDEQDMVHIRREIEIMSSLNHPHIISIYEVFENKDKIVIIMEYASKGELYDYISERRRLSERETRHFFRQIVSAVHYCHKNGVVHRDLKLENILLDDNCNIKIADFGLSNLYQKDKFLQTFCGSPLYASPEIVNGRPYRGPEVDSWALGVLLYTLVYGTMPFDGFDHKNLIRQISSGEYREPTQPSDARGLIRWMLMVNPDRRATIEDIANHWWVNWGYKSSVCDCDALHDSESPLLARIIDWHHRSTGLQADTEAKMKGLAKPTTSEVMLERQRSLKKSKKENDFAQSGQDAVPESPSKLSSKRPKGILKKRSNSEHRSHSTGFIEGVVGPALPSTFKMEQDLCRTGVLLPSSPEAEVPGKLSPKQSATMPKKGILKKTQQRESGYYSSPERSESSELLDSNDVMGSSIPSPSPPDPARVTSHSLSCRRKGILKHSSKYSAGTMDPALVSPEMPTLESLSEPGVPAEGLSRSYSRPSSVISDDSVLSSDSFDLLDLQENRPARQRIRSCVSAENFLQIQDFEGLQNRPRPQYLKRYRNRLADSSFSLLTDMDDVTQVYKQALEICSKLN

[8] = molecular target: T4, panel of 255 wild-type kinases (Homo sapiens, UniProt Q9BXA7); conditions: kinase TSSK1, 1 µmol/L single concentration, cited from earlier work
T4 sequence (Q9BXA7 1-367): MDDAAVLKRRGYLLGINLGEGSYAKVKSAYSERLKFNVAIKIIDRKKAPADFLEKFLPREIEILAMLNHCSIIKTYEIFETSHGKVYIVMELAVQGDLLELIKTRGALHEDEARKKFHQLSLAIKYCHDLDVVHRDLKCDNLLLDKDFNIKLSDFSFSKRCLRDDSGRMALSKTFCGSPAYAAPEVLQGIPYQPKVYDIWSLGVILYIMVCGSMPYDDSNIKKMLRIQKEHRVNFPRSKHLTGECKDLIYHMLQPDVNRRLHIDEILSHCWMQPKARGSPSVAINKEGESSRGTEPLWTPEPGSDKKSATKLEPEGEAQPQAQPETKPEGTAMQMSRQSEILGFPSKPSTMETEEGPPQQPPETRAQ

[9] = kinase HER2, 1 µmol/L single concentration, ref DOI: 10.1158/1535-7163.MCT-18-0877
[10] = ref DOI: 10.1158/1535-7163.MCT-18-0877
[11] = kinase HER2, 1 µmol/L single concentration, ref DOI: 10.1371/journal.pone.0092146
[12] = ref DOI: 10.1371/journal.pone.0092146
[13] = BRK kinase assay, 1 µmol/L single concentration, ref DOI: 10.1371/journal.pone.0092146
[14] = BRK kinase assay, 1 µmol/L single concentration, ref DOI: 10.1158/1535-7163.MCT-18-0877

SMILES | %-inhibition at 1 µmol/L, HER2 [1, 9] [%] | %-inhibition at 1 µmol/L, PRKX [2, 10] [%] | %-inhibition at 1 µmol/L, Erk2 [3, 10] [%] | %-inhibition at 1 µmol/L, FAK [4, 10] [%] | %-inhibition at 1 µmol/L, IKKβ [5, 10] [%] | %-inhibition BRK [6] [%] | %-inhibition, NuaK1 [7, 10] [%] | %-inhibition at 1 µmol/L, TSSK1 [8, 10] [%] | %-inhibition at 1 µmol/L, HER2 [1, 11] [%] | %-inhibition at 1 µmol/L, PRKX [2, 12] [%] | %-inhibition at 1 µmol/L, Erk2 [3, 12] [%] | %-inhibition at 1 µmol/L, FAK [4, 12] [%] | %-inhibition at 1 µmol/L, IKKβ [5, 12] [%] | %-inhibition BRK [6, 13] [%] | %-inhibition, NuaK1 [7, 12] [%] | %-inhibition at 1 µmol/L, TSSK1 [8, 12] [%] | %-inhibition BRK [6, 14] [%] | %-inhibition at 1 µmol/L, HER2 [1] [%]
C=CC(=O)N1CCC[C@@H](n2nc(-c3ccc(Oc4ccccc4)cc3)c3c(N)ncnc32)C1 [ibrutinib] | 100 | 0.66 | -7 | 5 | -0.348 | 103 | 7 | 9 | – | – | – | – | – | – | – | – | – | –
CC(=O)Nc1cccc(-n2c(=O)n(C3CC3)c(=O)c3c(Nc4ccc(I)cc4F)n(C)c(=O)c(C)c32)c1 [trametinib] | – | – | – | – | – | – | – | – | -5.36 | -1.19 | -5 | -2.41 | 0.741 | -5.53 | -0.634 | -5 | – | –
Cc1cc(Nc2ncc(Cl)c(Nc3ccccc3S(=O)(=O)C(C)C)n2)c(OC(C)C)cc1C1CCNCC1 [ceritinib] | 9 | 11 | 57 | 100 | -7 | – | 17 | 101 | – | – | – | – | – | – | – | – | 98 | –
C[C@@H](Oc1cc(-c2cnn(C3CCNCC3)c2)cnc1N)c1c(Cl)ccc(F)c1Cl [crizotinib] | – | – | – | – | – | – | – | – | – | -7 | -4.58 | 90 | -5 | 15 | 99 | 21 | – | -0.714
C=CC(=O)Nc1cc(Nc2nccc(-c3cn(C)c4ccccc34)n2)c(OC)cc1N(C)CCN(C)C [osimertinib] | 100 | 1.37 | -10 | 81 | -1.32 | – | 48 | 76 | – | – | – | – | – | – | – | – | 101 | –
CCCS(=O)(=O)Nc1ccc(F)c(C(=O)c2c[nH]c3ncc(-c4ccc(Cl)cc4)cc23)c1F [vemurafenib] | – | – | – | – | – | – | – | – | 2 | -3.45 | -4.58 | -3.55 | -3.31 | 98 | 4 | -4 | – | –
O=C(c1ccc(F)c(F)c1Nc1ccc(I)cc1F)N1CC(O)([C@@H]2CCCCN2)C1 [cobimetinib] | -1.21 | 2.17 | -6.38 | -4 | 1.29 | – | 2.32 | 7 | – | – | – | – | – | – | – | – | -1 | –
CC(C)(C)c1nc(-c2cccc(NS(=O)(=O)c3c(F)cccc3F)c2F)c(-c2ccnc(N)n2)s1 [dabrafenib] | – | – | – | – | – | – | – | – | 50 | -1.55 | -8 | 13 | 3.71 | 98 | 7 | 8 | – | –
CO[C@@H]1[C@H](N(C)C(=O)c2ccccc2)C[C@H]2O[C@]1(C)n1c3ccccc3c3c4c(c5c6ccccc6n2c5c31)C(=O)NC4 [midostaurin] | 63 | 97 | 2.14 | 28 | -4 | – | 101 | 95 | – | – | – | – | – | – | – | – | 11 | –
